Laboratory results published in patent US20120004257A1, “NOVEL COMPOUNDS” (priority 2010, published 2012).
Where a name gives a salt, the structure may show the parent alone.

Columns and labels:
Assay type in all cases: biochemical
[1] = system: noradrenaline (NA) reuptake in synaptosomes; test: NA reuptake inhibition in synaptosomes; conditions: 3H-NA, read-out: NA-uptake IC50
Description: (§1) Compounds of the invention may be tested for their ability to inhibit reuptake of the monoamines dopamine, noradrenaline and serotonin in synaptosomes e.g. such as described in WO 97/30997 (NeuroSearch A/S) or WO 97/16451 (NeuroSearch A/S). The compounds of the invention may also be tested for their antinociceptive activity e.g. such as described below: Background: formalin injection into the rat hindpaw initiates […] spontaneous nociceptive behaviours consisting of either flinching, and licking and/or biting of the injected paw. The first phase occurs as a direct chemical stimulation of nociceptors, and is followed by a period of relative quiescence called interphase that can be attributed to activation of noxious inhibitory control pathways; primarily 5-HT and NA pathways originating from brainstem nuclei. The second phase occurs as a result of increased primary afferent afferent drive with subsequent sensitization of nociceptive spinal neurones (Coderre et al., 1993). Animals: adult male Sprague-Dawley rats (Harlan Scandinavia, Alleroed, Denmark). The experiments was performed according to the Ethical Guidelines of the International Association for the Study of Pain (Zimmermann, 1983) and the Danish Committee for Experiments on Animals. […] MED and ED50 values were calculated where possible. Data (mean+/−SEM) were analyzed using one way ANOVA followed by Bonferonni's t test. […]

[2] = system: dopamine (DA) reuptake in synaptosomes; test: DA reuptake inhibition in synaptosomes; conditions: 3H-DA, read-out: DA-uptake IC50
Description: as §1

[3] = system: serotonine (5-HT) reuptake in synaptosomes; test: 5-HT reuptake inhibition in synaptosomes; conditions: 3H-5-HT, read-out: 5-HT-uptake IC50
Description: as §1

CCc1cc2ccc(O[C@@H]3C[C@H]4CC[C@@H](C3)N4)cc2oc1=O [Compound 1.1, exo-7-[(8-Aza-bicyclo[3.2.1]oct-3-yl)oxy]-3-ethyl-chromen-2-one hydrochloride]
IC50 [1]: 47 nM | IC50 [2]: 500 nM | IC50 [3]: 7.8 nM
